Results as given in patent US20240342186A1, “PYRIDINE DERIVATIVES WITH N-LINKED CYCLIC SUBSTITUENTS AS cGAS INHIBITORS” (Boehringer Ingelheim International GmbH, priority 2021, published 2024).
Where two headings read alike, the source gives them in different places.

Assays:
cGAS = cGAS (Homo sapiens (Human), UniProt Q8N884); experiment: Human cGAS enzyme assay (hcGAS IC50, in vitro), cGAMP formation by RapidFire MS; type: biochemical;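 further: enzyme activated by 45 bp dsDNA with GTP and ATP (30 µM each), 60 min compound pre-incubation then 90 min reaction, cGAMP relative to cyclic-di-GMP internal standard, 8-point dilutions up to 10 µM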
Sequence of cGAS (Q8N884 whole entry): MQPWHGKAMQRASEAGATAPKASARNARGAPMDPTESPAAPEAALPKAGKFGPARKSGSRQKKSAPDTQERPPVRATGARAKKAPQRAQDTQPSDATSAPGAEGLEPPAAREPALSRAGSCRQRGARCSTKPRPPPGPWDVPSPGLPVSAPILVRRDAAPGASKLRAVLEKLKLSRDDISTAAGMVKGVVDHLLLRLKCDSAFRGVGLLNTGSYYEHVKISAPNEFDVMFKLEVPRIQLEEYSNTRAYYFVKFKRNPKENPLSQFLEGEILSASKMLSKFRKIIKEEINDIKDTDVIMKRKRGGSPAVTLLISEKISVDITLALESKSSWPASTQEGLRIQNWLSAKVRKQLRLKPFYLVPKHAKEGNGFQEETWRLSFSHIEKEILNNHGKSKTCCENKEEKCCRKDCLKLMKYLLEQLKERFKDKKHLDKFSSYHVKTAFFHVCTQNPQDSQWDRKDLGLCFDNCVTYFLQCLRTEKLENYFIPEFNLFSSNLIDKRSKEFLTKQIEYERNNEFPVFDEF

[1] = system: cellular cGAS activity in baculovirus-stimulated THP1-Dual cells (IRF dependent Lucia luciferase reporter); experiment: Human cGAS cell assay: inhibition of IFN induction in virus-stimulated THP1 cells (THP1(vir) IC50); type: cell-based; conditions: Homo sapiens, THP1-Dual
Source text: (§1) 6.2 Method: Human cGAS Cell Assay and cGAMP Stimulated Counter Cell Assay (THP1(vir) IC50 and THP1(cGAMP) IC50)
(§2) THP1-Dual™ cells (InvivoGen #thpd-nfis) expressing IRF dependent Lucia luciferase reporter were used as basis for both assays. For the detection of cellular cGAS activity cells were stimulated by a baculovirus (pFastbac-1, Invitrogen, no coding insert) infection that delivers the cGAS enzyme stimulating double-stranded DNA (measurement of THP1(vir) IC50).
(§3) For the counter assay, cells were stimulated by cGAMP (SigmaAldrich #SML1232) to activate the identical pathway independent and directly downstream of cGAS (measurement of THP1(cGAMP) IC50). Pathway activity was monitored by measuring the Lucia luciferase activity induced by either DNA stimulated cGAS enzyme activity (measurement of THP1(vir) IC50) or by cGAMP directly (measurement of THP1(cGAMP) IC50, counter assay).
(§4) Compounds were delivered in 10 mM DMSO solution, serially diluted and transferred to the 384 well assay plate (Greiner #781201) using an Echo acoustic dispenser. Typically, 8 concentrations were used with the highest concentration at 10 μM in the final assay volume followed by ˜1:5 dilution steps. DMSO concentration was set to 1% in the final assay volume. The 384 well assay plate contained 21 test compounds (column 1-22), and DMSO in column 23 and 24.
(§5) Cells, cultivated according to manufacturer conditions, were harvested by centrifugation at 300 g/10 min and were then resuspended and diluted to 1.66E5 cells/ml in fresh cell culture medium (RPMI 1640 (Gibco #A10491-01), 10% FCS (Gibco #10500), 1× GlutaMax (Gibco #35050-061), 1× Pen/Strep solution (Gibco #15140-122), 100 μg/ml Normocin (InvivoGen #ant-nr), 100 μg/ml Zeocin (InvivoGen #ant-zn), 10 μg/ml Blasticidin S (Life Technologies #A11139-03)). The baculovirus solution was then added 1:200 (have varied according to virus batch) to the cells (measurement of THP1(vir) IC50).
(§6) 30 μL of the cell/virus-mix were added to each well of the compound plate from column 1-23 via MultiDrop Combi dispenser (5000 cells/well). In column 24, 30 μl/5000 cells/well without virus were added as a low control.
(§7) The plates were then incubated for 18 h at 37° C. in a humidified incubator.
(§8) Following that, 15 μl of QuantiLuc detection reagent (InvivoGen #rep-qlcg5) were added to each well using a MultiDrop Combi. Measurement was done immediately after the addition using an EnVision reader (US-luminescence read-mode).
(§9) For data evaluation and calculation, the measurement of the low control was set as 0% control and the measurement of the high control was set as 100% control. The IC50 values were calculated using the standard 4 parameter logistic regression formula. Calculation: [y=(a−d)/(1+(x/c)^b)+d], a=low value, d=high value; x=conc M; c=IC50 M; b=slope

[2] = system: cGAMP-stimulated THP1-Dual cells (pathway directly downstream of cGAS); experiment: cGAMP stimulated counter cell assay: inhibition of IFN induction in cGAMP-stimulated THP1 cells (THP1(cGAMP) IC50); type: cell-based, human; conditions: for IC50: Homo sapiens, THP1-Dual; for Ratio THP1(cGAMP) IC50 / THP1(vir) IC50: selectivity for cGAS inhibition
Source text: as §1, §2, §3, §4, §5, §6, §7, §8, §9

[3] = system: cellular cGAS activity in dsDNA-stimulated human whole blood; experiment: Human whole blood assay (hWB IC50): IFNα2α production after dsDNA transfection; type: cell-based; conditions: inhibition of IFN induction in dsDNA-stimulated human whole blood
Protocol: 6.3 Method: Human Whole Blood Assay (Human WB IC50)
For the detection of cellular cGAS activity human whole blood was stimulated by transfection with double stranded DNA. Pathway activity was monitored by measuring the IFNα2α production.
Compounds were delivered as 10 mM DMSO solution and serially diluted and transferred to the 96-well cell culture plate (Corning #3595), prefilled with 20 μl OptiMEM (Gibco, #11058-021) in each well, using an Echo acoustic dispenser. Typically, 8 concentrations were used with the highest concentration at 10 µM in the final assay volume followed by ˜1:5 dilution steps. DMSO concentration was set to 0.1% in the final assay volume. The 96-well assay plate contained 10 test compounds, and DMSO in control wells.
Collection of human whole blood from 3 or more healthy donors (male or female, no medication for 7 days except contraceptive and thyroxine) as Na-Citrate blood (e.g. 3.8% in Monovettes from Sarstedt) was conducted in parallel. Whole blood was kept at room temperature for a maximum of 3 hours after collection until use in the assay.
160 μl of the whole blood samples was transferred to each well of the 96-well assay plates filled with compound/OptiMEM. All assay plates were prepared as duplicates with blood from different donors. Blood plates were kept at room temperature for 60 minutes and continuous shaking with 450 rpm, covered with the lid, but not sealed.
20 μl OptiMEM and 9.6:1 Fugene was added to all low control wells.
After covering assay plates with aera seals and the lid, blood plates were kept at room temperature for 30 minutes and continuous shaking with 450 rpm, followed by an overnight incubation of 22 h at 37° C. in the incubator, without shaking.
For the detection of IFNα-2α in human plasma, the biotinylated capture antibody (Antibody set IFNA2, Meso Scale Diagnostics #B21VH-3, including coating and capture antibody) was diluted 1:17.5 in Diluent 100 (Meso Scale Diagnostics #R^50AA-4), according to the manufacturer's directions. U-Plex MSD GOLD 96-well Small Spot Strepavidin SECTOR Plates (Meso Scale Diagnostics #L45SA-5) were coated with 25 μl diluted capture antibody. Coated plates were incubated for 60 min at room temperature under continuous shaking at 700 rpm. MSD IFNα-2α plates were washed three times with 150 μl wash buffer (1x HBSS, 0.05% Tween).
After blocking the plates with 100 μl block solution/well (1x HBSS with 0.2% Tween, 2% BSA) for 60 min at room temperature and continuous shaking at 700 rpm, plates were emptied as dry as possible by dumping just before continuing with the human plasma.
Whole Blood assay plates were centrifuged at 1600 rpm for 10 minutes. 25 μl of supernatant was transferred with a pipetting robot from each whole blood plate to the corresponding IFNα-2α plate. Plates were sealed with microplate seals and kept at room temperature again under continuous shaking at 700 rpm for two hours.
Next MSD IFNα-2α plates were washed three times with 150 μl wash buffer (1×HBSS, 0.05% Tween), before adding 25 μl MSD SULFO-TAG IFNα-2α Antibody solution (1:100 diluted in Diluent 3 (Meso Scale Diagnostics #R50AP-2) to each well of the plates.
Afterwards plates were sealed with microplate seals and kept at room temperature again under continuous shaking at 700 rpm for two hours. Finally, MSD IFNα-2α plates were washed three times with 150 μl wash buffer (1×HBSS, 0.05% Tween). 150 μl 2× Read buffer was added to each well and plates were immediately measured with the MSD Sector S600 Reader using the vendor barcode.
For data evaluation and calculation, % control calculation of each well was based on the mean of high (DNA stimulated control) and mean of low (unstimulated control) controls by using the following formula:
[counts(sample)−counts(low))/(counts(high)−counts(low))]*100
The IC50 values were calculated using the standard 4 parameter logistic regression formula. Calculation: [y=(a−d)/(1+(x/c)^b)+d], a=low value, d=high value; x=conc M; c=IC50 M; b=slope

[4] = biochemical (in vitro) cGAS inhibition
[5] = inhibition of IFN induction in virus-stimulated THP1 cells, read-out: THP1(vir) IC50
[6] = inhibition of IFN induction in cGAMP-stimulated THP1 cells, read-out: THP1(cGAMP) IC50 (converted)

| SMILES | IC50 (cGAS; [4]) [nM] | IC50 [1, 5] [nM] | IC50 [2, 6] [nM] | Ratio THP1(cGAMP) IC50 / THP1(vir) IC50 [2] | IC50 [3] [nM] | IC50 (cGAS; biochemical (in vitro), human cGAS, 45 bp dsDNA, GTP/ATP) [nM] | IC50 ([1]; read-out: THP1(vir) IC50, inhibition of IFN induction in virus-stimulated THP1 cells) [nM] | IC50 ([2]; read-out: THP1(cGAMP) IC50) [nM] |
| --- | --- | --- | --- | --- | --- | --- | --- | --- |
| CC1(C#N)CN(c2cc(Cl)cnc2O[C@H]2C[C@@H](C(=O)O)N(c3nc(C(F)F)nc4c3oc3ccccc34)C2)CCO1 (stereo partly shown) [Example 1.02] | 4 | 697 | 21900 | 31 | 3440 |  |  |  |
| CC1(C#N)CN(c2cc(Cl)cnc2O[C@H]2C[C@@H](C(=O)O)N(c3nc(C(F)(F)F)nc4c3oc3ccccc34)C2)CCO1 (stereo partly shown) [Example 1.03] | 7 | 399 | 15100 | 38 | 8450 |  |  |  |
| C[C@@H]1N(c2cc(Cl)cnc2O[C@H]2C[C@@H](C(=O)O)N(c3nc(C(F)F)nc4c3oc3ccccc34)C2)CCOC12COC2 [Example 1.09] | 2 | 19 | 22100 | 1169 | 19 |  |  |  |
| C[C@@H]1N(c2cc(Br)cnc2O[C@H]2C[C@@H](C(=O)O)N(c3nc(C(F)(F)F)nc4c3oc3ccccc34)C2)CCOC12COC2 [Example 1.10, (2S,4S)-4-({5-bromo-3-[(9S)-9-methyl-2,5-dioxa-8-azaspiro[3.5]nonan-8-yl]pyridin-2-yl}oxy)-1-[4-(trifluoromethyl)-8-oxa-3,5-diazatricyclo[7.4.0.0^2,7]trideca-1(9),2(7),3,5,10,12-hexaen-6-yl]pyrrolidine-2-carboxylic acid] |  | 91 | 16100 | 178 | 33 | 5 |  |  |
| C#Cc1cnc(O[C@H]2C[C@@H](C(=O)O)N(c3nc(C(F)(F)F)nc4c3oc3ccccc34)C2)c(N2CCOC3(COC3)[C@@H]2C)c1 [Example 1.12] | 3 | 7 | 11900 | 1769 | 15 |  |  |  |
| C[C@@H]1N(c2cc(Cl)cnc2O[C@H]2C[C@@H](C(=O)O)N(c3nc(C(F)(F)F)nc4c3oc3ccccc34)C2)CCOC12COC2 [Example 1.13] | 4 | 40 | 16400 | 413 | 102 |  |  |  |
| C#Cc1cnc(O[C@H]2C[C@@H](C(=O)O)N(c3nc(C(C)(F)F)nc4c3oc3ccccc34)C2)c(N2CCOC3(COC3)[C@@H]2C)c1 [Example 1.14] | 3 | 6 | > 16600 | >2708 | 7 |  |  |  |
| C#Cc1cnc(O[C@H]2C[C@@H](C(=O)O)N(c3nc(C(C)(F)F)nc4c3oc3ccccc34)C2)c(N2CCOC3(COC3)[C@H]2C)c1 [Example 1.15] | 75 | 332 | 26200 | 79 | 702 |  |  |  |
| C#Cc1cnc(O[C@H]2C[C@@H](C(=O)O)N(c3nc(C(F)(F)Cl)nc4c3oc3ccccc34)C2)c(N2CCOC3(COC3)[C@@H]2C)c1 [Example 1.16] | 3 | 7 | 15000 | 2209 | 23 |  |  |  |
| C#Cc1cnc(O[C@H]2C[C@@H](C(=O)O)N(c3nc(C(F)(F)C(F)(F)F)nc4c3oc3ccccc34)C2)c(N2CCOC3(COC3)[C@@H]2C)c1 [Example 1.17] | 17 | 154 | > 16600 | >108 | 305 |  |  |  |
| C[C@H]1CN(C#N)CCN1c1cc(Br)cnc1O[C@H]1C[C@@H](C(=O)O)N(c2nc(C(F)F)nc3c2oc2ccccc23)C1 [Example 1.18] | 4 | 239 | 6510 | 27 | 226 |  |  |  |
| C[C@@H]1N(c2cc(-c3ccnc(N(C)C)c3)cnc2O[C@H]2C[C@@H](C(=O)O)N(c3nc(C(F)F)nc4c3oc3ccccc34)C2)CCOC12COC2 [Example 4.01, (2S,4S)-1-[4-(Difluoromethyl)-8-oxa-3,5-diazatricyclo[7.4.0.0^2,7]trideca-1(9),2(7),3,5,10,12-hexaen-6-yl]-4-({N,N-dimethyl-5-[(9S)-9-methyl-2,5-dioxa-8-azaspiro[3.5]nonan-8-yl]-[3,4′-bipyridin]-2′-yl}oxy)pyrrolidine-2-carboxylic acid] |  |  |  |  | 5 |  | < 5 | 6680 |
